The text below walks through data of patent US12011444B2, “N-substituted indole derivatives as PGE2 receptor modulators” (Idorsia Pharmaceuticals Ltd, priority 2015, dated 2024).

Assay [1] concerns the target PTRGER4 (EP4) (Homo sapiens (Human), UniProt P35408). The assay can be described thus: hEP4 b-arrestin assay (PathHunter HEK 293 PTGER4 b-arrestin cells). The assay is classed as cell-based. In short, it runs like this: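 Stably transfected HEK293 cells carrying EP4–ProLink and β-arrestin 2–EA (β-gal fragment complementation), pre-incubated with compound 15 min at 37 °C, then stimulated with PGE2 (20 nM final) for 120 min at 37 °C. Chemiluminescence read after 1 h detection reagent at room temperature; activity per concentration expressed as percent of DMSO control.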

Assay [2] deals with PTGER2 (EP2) (Homo sapiens (Human), UniProt P43116). Put plainly: hEP2 b-arrestin assay (PathHunter HEK 293 PTGER2 b-arrestin cells). The assay is classed as cell-based. In short, it runs like this: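 HEK293 cells expressing ProLink-tagged EP2 and EA-fused β-arrestin 2 (enzyme fragment complementation) were seeded 24 h, pre-incubated with compound 15 min at 37 °C, then stimulated with 5 μM PGE2 (final) for 120 min.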

[3] abbreviates: antagonistic activity on hEP4, mean where measured multiple times.
The mark [4] stands for this setting: antagonistic activity on hEP2, mean where measured multiple times.
[5] abbreviates: hEP4 b-arrestin assay (values without asterisk).
Setting [6] is: hEP2 b-arrestin assay (values without asterisk).

Chain of PTGER2 (EP2) (P43116 whole entry, the tested form may be a part): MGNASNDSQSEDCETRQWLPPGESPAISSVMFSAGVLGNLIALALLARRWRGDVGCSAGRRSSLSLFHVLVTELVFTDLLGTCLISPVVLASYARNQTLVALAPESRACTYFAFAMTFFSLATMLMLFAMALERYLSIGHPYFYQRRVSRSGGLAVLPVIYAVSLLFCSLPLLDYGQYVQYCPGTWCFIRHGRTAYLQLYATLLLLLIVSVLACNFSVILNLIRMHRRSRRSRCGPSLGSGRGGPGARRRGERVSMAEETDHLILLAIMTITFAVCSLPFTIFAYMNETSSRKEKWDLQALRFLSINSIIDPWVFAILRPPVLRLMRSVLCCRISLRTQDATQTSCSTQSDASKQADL
Chain of PTRGER4 (EP4) (P35408 whole entry, looked up, the tested form may be a part): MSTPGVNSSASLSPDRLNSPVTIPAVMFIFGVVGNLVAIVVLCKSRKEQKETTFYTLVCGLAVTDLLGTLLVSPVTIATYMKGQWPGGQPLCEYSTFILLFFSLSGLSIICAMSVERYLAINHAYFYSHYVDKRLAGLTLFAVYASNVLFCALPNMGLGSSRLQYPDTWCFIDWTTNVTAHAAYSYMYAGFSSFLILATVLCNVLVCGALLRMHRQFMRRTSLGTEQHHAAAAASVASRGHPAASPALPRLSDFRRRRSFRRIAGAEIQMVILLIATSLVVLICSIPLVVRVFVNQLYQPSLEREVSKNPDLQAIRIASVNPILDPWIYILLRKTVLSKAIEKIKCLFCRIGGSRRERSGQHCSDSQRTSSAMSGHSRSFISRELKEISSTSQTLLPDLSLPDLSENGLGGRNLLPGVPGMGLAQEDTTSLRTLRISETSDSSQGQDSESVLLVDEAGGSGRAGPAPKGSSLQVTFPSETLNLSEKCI

For `Cc1cc2c(F)ccc(F)c2n1CCNc1cc(-c2ccc(C(=O)O)c(CC(C)C)c2)ncn1` [compound 332, 4-{6-[2-(4,7-Difluoro-2-methyl-indol-1-yl)-ethylamino]-pyrimidin-4-yl}-2-isobutyl-benzoic acid], the IC50 in assay [1] (setting [3]) is 588 nM; in assay [2] (setting [4]), 5 nM.
For `CCOc1cc(-c2cc(NCCn3c(C)cc4c(OC)cccc43)ncn2)sc1C(=O)O` [compound 216], in that order: 22 nM and 2 nM.
Regarding `COc1ccc(F)c2c1cc(C#N)n2CCNc1cc(-c2c[nH]c3ncccc23)ncn1` [Example 978, 7-Fluoro-4-methoxy-1-{2-[6-(1H-pyrrolo[2,3-b]pyridin-3-yl)-pyrimidin-4-ylamino]-ethyl}-1H-indole-2-carbonitrile], the 50% inhibitory concentration (IC50) in assay [1] (setting [5]) is 16 nM; in assay [2] (setting [6]) it was 1 nM.
The corresponding values for `COc1nc(-c2cc(NCCn3c(C)cc4c(OC)ccc(F)c43)ncn2)sc1C(=O)O` [Example 1033, 2-{6-[2-(7-Fluoro-4-methoxy-2-methyl-indol-1-yl)-ethylamino]-pyrimidin-4-yl}-4-methoxy-thiazole-5-carboxylic acid] are 37 nM and 7 nM.
As to `COc1ccc(F)c2c1cc(C)n2CCNc1cc(-c2ccc(C(=O)O)c(C#N)c2)ncn1` [Example 888, 2-Cyano-4-{6-[2-(7-fluoro-4-methoxy-2-methyl-indol-1-yl)-ethylamino]-pyrimidin-4-yl}-benzoic acid], the 50% inhibitory concentration (IC50) in assay [1] (setting [5]) amounted to 472 nM; in assay [2] (setting [6]), 41 nM.
As for `CCOc1cc(-c2cc(NCCn3c(C)cc4c(Cl)cc(F)cc43)ncn2)sc1C(=O)O` [compound 239], the IC50 was 19 nM in assay [1] (setting [3]) and 1 nM in assay [2] (setting [4]).
Take `CCOc1cc(-c2cc(NCCn3c(C)cc4c(F)ccc(C)c43)ncn2)ccc1C(=O)O` [Example 812, 2-Ethoxy-4-{6-[2-(4-fluoro-2,7-dimethyl-indol-1-yl)-ethylamino]-pyrimidin-4-yl}-benzoic acid]: the IC50 in assay [1] (setting [5]) was determined as 976 nM; in assay [2] (setting [6]), 2 nM.
`CCCc1cc(-c2cc(NCCn3c(C)cc4cc(OC)cc(F)c43)ncn2)cc(Cl)c1C(=O)O` [compound 372]: the figures for the IC50 in assay [1] (setting [3]) and in assay [2] (setting [4]) were 381 nM and 260 nM, respectively.
Regarding `COc1ccc(F)c2c1cc(C#N)n2CCNc1cc(-c2ccc3nn[nH]c3c2)ncn1` [Example 985, 1-{2-[6-(3H-Benzotriazol-5-yl)-pyrimidin-4-ylamino]-ethyl}-7-fluoro-4-methoxy-1H-indole-2-carbonitrile], the IC50 amounted to 14 nM in assay [1] (setting [5]) and 25 nM in assay [2] (setting [6]).
Consider `CCOc1cc(-c2cc(NCCn3c(C#N)cc4c(OC)cc(F)c(F)c43)ncn2)ccc1NCC(=O)O` [Example 945, (4-{6-[2-(2-Cyano-6,7-difluoro-4-methoxy-indol-1-yl)-ethylamino]-pyrimidin-4-yl}-2-ethoxy-phenylamino)-acetic acid], for which the 50% inhibitory concentration (IC50) in assay [1] (setting [5]) was determined as 2 nM; in assay [2] (setting [6]) it was 9 nM.
On to `COc1cc(F)cc2c1cc(C)n2CCNc1cc(-c2ccc(-c3ncno3)cc2)ncn1` [compound 184, [2-(6-Fluoro-4-methoxy-2-methyl-indol-1-yl)-ethyl]-[6-(4-[1,2,4]oxadiazol-5-yl-phenyl)-pyrimidin-4-yl]-amine], for which the IC50 in assay [1] (setting [3]) worked out at 170 nM; in assay [2] (setting [4]) it was 15 nM.
For the molecule `Cc1ccc(F)c2c1cc(C)n2CCNc1cc(-c2ccc(C(=O)O)c(N)c2)ncn1` [compound 41], the IC50 in assay [1] (setting [3]) was determined as 91 nM; in assay [2] (setting [4]), 101 nM.
For `CCOc1cc(-c2cc(NCCn3c(C)cc4cc(C)cc(F)c43)ncn2)sc1C(=O)O` [compound 228], in that order: 35 nM and 4 nM.
For `CCSc1cc(-c2cc(NCCn3c(C)cc4ccccc43)ncn2)ccc1C(=O)O` [compound 33, 2-Ethylsulfanyl-4-{6-[2-(2-methyl-indol-1-yl)-ethylamino]-pyrimidin-4-yl}-benzoic acid], in that order: 678 nM and 3 nM.
For `COc1ccc(F)c2c1cc(C)n2CCNc1cc(-c2ccc3cc[nH]c3c2)ncn1` [compound 68, [2-(7-Fluoro-4-methoxy-2-methyl-indol-1-yl)-ethyl]-[6-(1H-indol-6-yl)-pyrimidin-4-yl]-amine], in that order: 388 nM and 24 nM.
`COc1cccc2c1cc(C)n2CCNc1cc(-c2ccc(-c3ccn[nH]3)cc2)ncn1` [compound 75, [2-(4-Methoxy-2-methyl-indol-1-yl)-ethyl]-{6-[4-(2H-pyrazol-3-yl)-phenyl]-pyrimidin-4-yl}-amine]: the figures for the IC50 in assay [1] (setting [3]) and in assay [2] (setting [4]) were 95 nM and 7 nM, respectively.
Regarding `COc1cccc2c1cc(C)n2CCNc1cc(-c2cc(C)c(C(=O)O)s2)ncn1` [compound 51], the values for the IC50 in assay [1] (setting [3]) and in assay [2] (setting [4]) were 143 nM and 3 nM, respectively.
For `COc1cc(F)cc2c1cc(C)n2CCNc1cc(-c2ccc(-c3ccn(C)n3)cc2)ncn1` [compound 309, [2-(6-Fluoro-4-methoxy-2-methyl-indol-1-yl)-ethyl]-{6-[4-(1-methyl-1H-pyrazol-3-yl)-phenyl]-pyrimidin-4-yl}-amine], in that order: 86 nM and 11 nM.
For `CCCc1cc(-c2cc(NCCn3c(C)cc4cc(C)cc(Cl)c43)ncn2)cc(Cl)c1C(=O)O` [compound 335], in that order: 468 nM and 56 nM.
On to `CCSc1cc(-c2cc(NCCn3c(C#N)cc4c(OC)cc(F)cc43)ncn2)ccc1C(=O)O` [Example 954, 4-{6-[2-(2-Cyano-6-fluoro-4-methoxy-indol-1-yl)-ethylamino]-pyrimidin-4-yl}-2-ethylsulfanyl-benzoic acid], for which the IC50 in assay [1] (setting [5]) worked out at 41 nM; in assay [2] (setting [6]) it was 15 nM.
Consider `CCOc1cc(-c2cc(NCCn3c(C)cc4c(OC)ccc(F)c43)ncn2)ccc1CNC` [compound 358], for which the IC50 in assay [1] (setting [3]) was 731 nM; in assay [2] (setting [4]), 369 nM.
For `CCOc1cc(-c2cc(NCCn3c(C)cc4c(Cl)cc(Cl)cc43)ncn2)sc1C(=O)O` [compound 238], the IC50 in assay [1] (setting [3]) was 40 nM; in assay [2] (setting [4]) it was 5 nM.
With `CCc1cc(-c2cc(NCCn3c(C)cc4c(C)cc(F)cc43)ncn2)ccc1C(=O)O` [compound 219], the IC50 came out at 454 nM in assay [1] (setting [3]) and 41 nM in assay [2] (setting [4]).
The corresponding values for `Cc1cc2c(Cl)cccc2n1CCNc1cc(-c2ccc(C(=O)O)c(C3CC3)c2)ncn1` [compound 169] are 543 nM and 8 nM.
With `CCOc1cc(-c2cc(NCCn3c(C#N)cc4c(OC)ccc(F)c43)ncn2)sc1C(=O)NS(=O)(=O)C(C)C` [Example 815, Propane-2-sulfonic acid (5-{6-[2-(2-cyano-7-fluoro-4-methoxy-indol-1-yl)-ethylamino]-pyrimidin-4-yl}-3-ethoxy-thiophene-2-carbonyl)-amide], the half-maximal inhibitory concentration (IC50) in assay [1] (setting [5]) was determined as 7 nM; in assay [2] (setting [6]), 8 nM.
With `CCCC1NC(=O)c2ccc(-c3cc(NCCn4c(C)cc5c(OC)cccc54)ncn3)cc21` (racemic) [compound 314], the values for the IC50 in assay [1] (setting [3]) and in assay [2] (setting [4]) were 303 nM and 15 nM, respectively.
As for `CCc1cc(-c2cc(NCCn3c(C#N)cc4c(OC)ccc(F)c43)ncn2)ccc1OCC(=O)O` [Example 834, (4-{6-[2-(2-Cyano-7-fluoro-4-methoxy-indol-1-yl)-ethylamino]-pyrimidin-4-yl}-2-ethyl-phenoxy)-acetic acid], the IC50 in assay [1] (setting [5]) came out at 28 nM; in assay [2] (setting [6]) it was 15 nM.
For the molecule `Cc1ccc(F)c2c1cc(C)n2CCNc1cc(-c2ccc3c(c2)C(C)NC3=O)ncn1` (racemic) [compound 96], the half-inhibitory concentration (IC50) amounted to 572 nM in assay [1] (setting [3]) and 17 nM in assay [2] (setting [4]).
As for `CCOc1cc(-c2cc(NCCn3c(C)cc4c(OC)ccc(F)c43)ncn2)[nH]c1C(=O)O` [Example 1014, 3-Ethoxy-5-{6-[2-(7-fluoro-4-methoxy-2-methyl-indol-1-yl)-ethylamino]-pyrimidin-4-yl}-1H-pyrrole-2-carboxylic acid], the IC50 in assay [1] (setting [5]) worked out at 351 nM; in assay [2] (setting [6]) it was 7 nM.
On to `COc1cccc2c1cc(C)n2CCNc1cc(-c2ccc3nc(C)oc3c2)ncn1` [compound 60], for which the IC50 in assay [1] (setting [3]) amounted to 290 nM; in assay [2] (setting [4]), 85 nM.
`CCOc1cc(-c2cc(NCCn3c(C#N)cc4c(OC)cccc43)ncn2)ccc1NCC(=O)O` [Example 865, (4-{6-[2-(2-Cyano-4-methoxy-indol-1-yl)-ethylamino]-pyrimidin-4-yl}-2-ethoxy-phenylamino)-acetic acid]: the IC50 in assay [1] (setting [5]) turned out to be 5 nM; in assay [2] (setting [6]), 7 nM.
For `COc1cccc2c1cc(C)n2CCNc1cc(-c2ccc(-c3nnc(C)o3)c(F)c2)ncn1` [compound 300, {6-[3-Fluoro-4-(5-methyl-[1,3,4]oxadiazol-2-yl)-phenyl]-pyrimidin-4-yl}-[2-(4-methoxy-2-methyl-indol-1-yl)-ethyl]-amine], the results for the concentration for half-maximal inhibition (IC50) in assay [1] (setting [3]) and in assay [2] (setting [4]) were 494 nM and 40 nM, respectively.
Turning to `Cc1cc(F)cc2c1cc(C)n2CCNc1cc(-c2ccc3cnn(C)c3c2)ncn1` [compound 53], the figures for the half-maximal inhibitory concentration (IC50) in assay [1] (setting [3]) and in assay [2] (setting [4]) were 350 nM and 98 nM, respectively.
The corresponding values for `CNc1cc(-c2cc(NCCn3c(C)cc4c(F)ccc(OC)c43)ncn2)ccc1C(=O)O` [compound 252] are 660 nM and 57 nM.
On to `COc1ccc(F)c2c1cc(C)n2CCNc1cc(-c2cc(-c3ccccn3)c(C(=O)O)s2)ncn1` [Example 1066, 5-{6-[2-(7-Fluoro-4-methoxy-2-methyl-indol-1-yl)-ethylamino]-pyrimidin-4-yl}-3-pyridin-2-yl-thiophene-2-carboxylic acid], for which the 50% inhibitory concentration (IC50) in assay [1] (setting [5]) is 48 nM; in assay [2] (setting [6]) it was 3 nM.

One may read the IC50 as the point on the concentration scale where inhibition reaches its midpoint. A low value points to greater potency in that assay.
